Data from patent US4368198A, “Cephalosporins” (Sumitomo Chemical Company Limited, priority 1976, dated 1983).
In brackets after ≈: the same amount, converted by molar mass. Where two headings read alike, the source gives them in different places.

Legend:
Type in all cases: cell-based
[1] = system: Staphylococcus aureus 209P; test: antimicrobial activities in in vitro testing (MIC), Staphylococcus aureus 209P
Excerpt: (§1) The results of the antimicrobial activities of these compounds in in vitro testing in accordance with the recognized method are set forth in the Table below.

[2] = system: Staphylococcus aureus FS 289; test: antimicrobial activities in in vitro testing (MIC), Staphylococcus aureus FS 289; conditions: FS289, read-out: Minimum Inhibitory Concentration
Excerpt: as §1

Escherichia coli NIHJ = test: antimicrobial activities in in vitro testing (MIC), Escherichia coli NIHJ
[3] = system: Pseudomonas aeruginosa 104; test: antimicrobial activities in in vitro testing (MIC), Pseudomonas aeruginosa 104
Excerpt: as §1

Proteus vulgaris HX 19 = test: antimicrobial activities in in vitro testing (MIC), Proteus vulgaris HX 19; conditions: HX19, read-out: Minimum Inhibitory Concentration
Excerpt: as §1

[4] = system: Klebsiella pneumoniae 602; test: antimicrobial activities in in vitro testing (MIC), Klebsiella pneumoniae 602
[5] = Staphylococcus aureus 209P, in vitro, read-out: Minimum Inhibitory Concentration
[6] = in vitro, read-out: Minimum Inhibitory Concentration
[7] = Staphylococcus aureus 209 P, read-out: antimicrobial activities
[8] = read-out: antimicrobial activities

Compound | MIC [1, 5] | MIC [2] | MIC (Escherichia coli NIHJ; [6]) | MIC [3, 6] | MIC (Proteus vulgaris HX 19) | MIC [4, 6] | MIC [1, 7] | MIC (Escherichia coli NIHJ; [8]) | MIC [3, 8] | MIC [4, 8]
NC(=O)OCC1=C(C(=O)O)N2C(=O)C(NC(=O)[C@H](NC(=O)c3cnccc3O)c3ccccc3)[C@H]2SC1 (stereo partly drawn) [Example 6, 7-[D-α-(4-Hydroxypyridine-3-carboxamido)-α-phenylacetamido]-3-carbamoyloxymethyl-3-cephem-4-carboxylic acid] | 0.39 µg/mL (≈ 0.739 µM) | 3.13 µg/mL (≈ 5.93 µM) | 12.5 µg/mL (≈ 23.7 µM) | 12.5 µg/mL (≈ 23.7 µM) | 0.2 µg/mL (≈ 0.379 µM) | 12.5 µg/mL (≈ 23.7 µM) | – | – | – | –
NC(=O)OCC1=C(C(=O)O)N2C(=O)C(NC(=O)[C@H](NC(=O)c3cnc4cccnc4c3O)c3ccccc3)[C@H]2SC1 (stereo partly drawn) [Example 8, 7-[D-α-(4-Hydroxy-1,5-naphthyridine-3-carboxamido)-α-phenylacetamido]-3-carbamoyloxymethyl-3-cephem-4-carboxylic acid] | 0.78 µg/mL (≈ 1.35 µM) | 6.25 µg/mL (≈ 10.8 µM) | 3.13 µg/mL (≈ 5.41 µM) | 6.25 µg/mL (≈ 10.8 µM) | 0.78 µg/mL (≈ 1.35 µM) | 1.56 µg/mL (≈ 2.7 µM) | – | – | – | –
NC(=O)OCC1=C(C(=O)O)N2C(=O)C(NC(=O)[C@H](NC(=O)c3cnc4cccnc4c3O)c3cccc(N)c3)C2SC1 (some centres unmarked) [Example 9] | 0.78 µg/mL (≈ 1.31 µM) | 3.13 µg/mL (≈ 5.27 µM) | 1.56 µg/mL (≈ 2.63 µM) | 6.25 µg/mL (≈ 10.5 µM) | 0.78 µg/mL (≈ 1.31 µM) | 1.56 µg/mL (≈ 2.63 µM) | – | – | – | –
O=C(O)Cn1nnnc1SCC1=C(C(=O)O)N2C(=O)C(NC(=O)[C@H](NC(=O)c3cnc4cccnc4c3O)c3ccc(O)cc3)[C@H]2SC1 (stereo partly drawn) [Example 14, 7-[D-α-(4-Hydroxy-1,5-naphthyridine-3-carboxamido)-α-p-hydroxyphenylacetamido]-3-(1-carboxymethyl-1,2,3,4-tetrazol-5-ylthiomethyl)-3-cephem-4-carboxylic Acid] | – | – | – | – | – | – | 0.78 µg/mL (≈ 1.12 µM) | 1.56 µg/mL (≈ 2.25 µM) | 3.13 µg/mL (≈ 4.51 µM) | 1.56 µg/mL (≈ 2.25 µM)
NC(=O)OCC1=C(C(=O)O)N2C(=O)C(NC(=O)[C@H](NC(=O)c3cnc4cccnc4c3O)c3ccc(O)c(Cl)c3)C2SC1 (some centres unmarked) [Example 12] | 1.56 µg/mL (≈ 2.48 µM) | 6.25 µg/mL (≈ 9.94 µM) | 3.13 µg/mL (≈ 4.98 µM) | 6.25 µg/mL (≈ 9.94 µM) | 0.78 µg/mL (≈ 1.24 µM) | 1.56 µg/mL (≈ 2.48 µM) | – | – | – | –
NC(=O)OCC1=C(C(=O)O)N2C(=O)C(NC(=O)[C@H](NC(=O)c3cnc4cccnc4c3O)c3ccc(O)cc3)[C@H]2SC1 (stereo partly drawn) [Example 7, 7-[D-α-(4-Hydroxy-1,5-naphthyridine-3-carboxamido)-α-(p-hydroxyphenyl)acetamido]-3-carbamoyloxymethyl-3-cephem-4-carboxylic acid] | 0.78 µg/mL (≈ 1.31 µM) | 6.25 µg/mL (≈ 10.5 µM) | 3.13 µg/mL (≈ 5.26 µM) | 6.25 µg/mL (≈ 10.5 µM) | 0.78 µg/mL (≈ 1.31 µM) | 1.56 µg/mL (≈ 2.62 µM) | – | – | – | –
NC(=O)OCC1=C(C(=O)O)N2C(=O)C(NC(=O)[C@H](NC(=O)c3cnccc3O)c3cccc(N)c3)[C@H]2SC1 (stereo partly drawn) [Example 5, 7-[D-α-(4-Hydroxypyridine-3-carboxamido)-α-(m-aminophenyl)acetamido]-3-carbamoyloxymethyl-3-cephem-4-carboxylic acid] | 0.39 µg/mL (≈ 0.719 µM) | 3.13 µg/mL (≈ 5.77 µM) | 6.25 µg/mL (≈ 11.5 µM) | 6.25 µg/mL (≈ 11.5 µM) | 0.2 µg/mL (≈ 0.369 µM) | 12.5 µg/mL (≈ 23 µM) | – | – | – | –
CSc1ncc2c(O)c(C(=O)N[C@@H](C(=O)NC3C(=O)N4C(C(=O)O)=C(COC(N)=O)CS[C@H]34)c3ccc(O)cc3)cnc2n1 (stereo partly drawn) [Example 10, 7-[D-α-(2-Methylthio-5,8-dihydro-5-oxopyrido[2,3-d]-pyrimidine-6-carboxamido)-α-(p-hydroxyphenyl)acetamido]-3-carbamoyloxymethyl-3-cephem-4-carboxylic acid] | 0.78 µg/mL (≈ 1.22 µM) | 3.13 µg/mL (≈ 4.88 µM) | 6.25 µg/mL (≈ 9.74 µM) | 6.25 µg/mL (≈ 9.74 µM) | 1.56 µg/mL (≈ 2.43 µM) | 6.25 µg/mL (≈ 9.74 µM) | – | – | – | –
NC(=O)OCC1=C(C(=O)O)N2C(=O)C(NC(=O)[C@H](NC(=O)c3cnccc3O)c3ccc(O)cc3)[C@H]2SC1 (stereo partly drawn) [Example 4, 7-[D-α-(4-Hydroxypyridine-3-carboxamido)-α-p-hydroxyphenylacetamido]-3-carbamoyloxymethyl-3-cephem-4-carboxylic Acid] | 0.39 µg/mL (≈ 0.718 µM) | 3.13 µg/mL (≈ 5.76 µM) | 12.5 µg/mL (≈ 23 µM) | 6.25 µg/mL (≈ 11.5 µM) | 0.2 µg/mL (≈ 0.368 µM) | 12.5 µg/mL (≈ 23 µM) | – | – | – | –
O=C(O)Cc1nnc(SCC2=C(C(=O)O)N3C(=O)C(NC(=O)[C@H](NC(=O)c4cnc5cccnc5c4O)c4ccc(O)cc4)[C@H]3SC2)s1 (stereo partly drawn) [Example 13, 7-[D-α-(4-Hydroxy-1,5-naphthyridine-3-carboxamido)-α-p-hydroxyphenylacetamido]-3-(5-carboxymethyl-1,3,4-thiadiazol-2-ylthiomethyl)-3-cephem-4-carboxylic Acid] | – | – | – | – | – | – | 0.78 µg/mL (≈ 1.1 µM) | 1.56 µg/mL (≈ 2.2 µM) | 3.13 µg/mL (≈ 4.41 µM) | 1.56 µg/mL (≈ 2.2 µM)
NC(=O)OCC1=C(C(=O)O)N2C(=O)C(NC(=O)[C@H](NC(=O)c3cnc4cncnc4c3O)c3ccc(O)cc3)C2SC1 (stereo partly drawn) [Example 11, 7-[D-α-(5,8-Dihydro-5H-8-oxopyrido[3,2-d]pyrimidine-7-carboxamido)-α-(p-hydroxyphenyl)acetamido]-3-carbamoyloxymethyl-3-cephem-4-carboxylic acid] | 1.56 µg/mL (≈ 2.62 µM) | 6.25 µg/mL (≈ 10.5 µM) | 6.25 µg/mL (≈ 10.5 µM) | 12.5 µg/mL (≈ 21 µM) | 1.56 µg/mL (≈ 2.62 µM) | 6.25 µg/mL (≈ 10.5 µM) | – | – | – | –
